Source: patent US9849130B2 (KamTek, Inc., priority 2014, dated 2017)
≈ marks a conversion by molar mass, not a printed value. Where “and” joins values, the source holds several entries; their conditions need not be identical. Equal values may be shown once. Read-outs that look alike come from different tables or passages of the source.

How the values were obtained:
Escherichia coli strains = assay: MIC by microdilution in Mueller-Hinton broth against Escherichia coli strains; assay type: cell-based; conditions: Escherichia coli, Mueller-Hinton broth, read-out: MIC
Bacteroides Strains = assay: MIC by microdilution in Brucella broth against Bacteroides strains; assay type: cell-based, Bacteroides spp.
C. difficile = assay: Minimum bactericidal concentration (MBC) against C. difficile; assay type: cell-based, Clostridium difficile; conditions: for MBC: Clostridioides difficile
Lactobacillus strains = assay: MIC against Lactobacillus strains; assay type: cell-based, Lactobacillus spp.; conditions: broth microdilution, BHI with 0.02% Tween 80, pH 6.0, read-out: MIC
Enterococcus faecalis = assay: MIC by microdilution in Mueller-Hinton broth against Enterococcus faecalis strains; assay type: cell-based; conditions: Enterococcus faecalis
C. perfringens MH310 = assay: microbe, parasite or virus in culture; assay type: cell-based; conditions: Clostridium perfringens, MH310, C. perfringens MH310
Enterococci faecium = assay: MIC by microdilution in Mueller-Hinton broth against Enterococci faecium strains; assay type: cell-based, Enterococcus faecium; conditions: Enterococcus faecium, Mueller-Hinton broth, read-out: MIC
[1] = test system: Staphylococcus aureus strains; assay: MIC by microdilution in Mueller-Hinton broth against Staphylococcus aureus strains; assay type: cell-based; conditions: Staphylococcus aureus
[2] = test system: Lachnospiraceae and related bacterial strains; assay: MIC against Lachnospiraceae and related bacterial strains; assay type: cell-based, Lachnospiraceae spp.
Fusobacterium = assay: MIC by microdilution in Brucella broth against Fusobacterium; assay type: cell-based, Fusobacterium spp.; conditions: Brucella broth, read-out: MIC

With CC(C)N=c1cc2n(-c3ccc(Cl)cc3)c3ccccc3nc-2cc1Nc1ccc(Cl)cc1 [CFM, 3-(p-chloroanilino)-10-(p-chlorophenyl)-2,10-dihydro-2-iso-propyliminophenazine] the MIC (Escherichia coli strains; Escherichia coli strain NR 17647) was over 32 µg/mL, the MIC (Escherichia coli strains; Escherichia coli strain NR 17650) was over 32 µg/mL and the MIC (Escherichia coli strains; Escherichia coli strain NR 17661) was over 32 µg/mL. For the same molecule, the MIC (Bacteroides Strains; B. caccae HM728, read-out: MIC) was 1 µg/mL (≈ 2.11 µM), the MIC (Bacteroides Strains; B. eggerthii HM210, read-out: MIC) was 2 µg/mL (≈ 4.22 µM) and the MIC (Bacteroides Strains; B. fragilis HM709, read-out: MIC) was 4 µg/mL (≈ 8.45 µM). For the same molecule, the MIC (Bacteroides Strains; B. fragilis HM710, read-out: MIC) was 2 µg/mL (≈ 4.22 µM), the MIC (Bacteroides Strains; B. fragilis HM714, read-out: MIC) was 2 µg/mL (≈ 4.22 µM) and the MIC (Bacteroides Strains; B. ovatus HM222, read-out: MIC) was 0.25 µg/mL (≈ 0.528 µM). It also gave an MIC (Bacteroides Strains; B. stercoris HM1036, read-out: MIC) of 0.5 µg/mL (≈ 1.06 µM), an MIC (Bacteroides Strains; Bacteroides, B. spp. HM18) of 4 µg/mL (≈ 8.45 µM) and an MIC (Bacteroides Strains; Bacteroides, B. spp. HM19) of 1 µg/mL (≈ 2.11 µM). The MIC (Bacteroides Strains; Bacteroides, B. spp. HM23, read-out: MIC) was 2 µg/mL (≈ 4.22 µM), the MIC (Bacteroides Strains; Bacteroides, B. spp. HM27) was 1 µg/mL (≈ 2.11 µM) and the MIC (Bacteroides Strains; Bacteroides, B. spp. HM58) was 1 µg/mL (≈ 2.11 µM). The MBC/MIC (C. difficile) was 2 and 1, the MBC/MIC ratio range (C. difficile) was 1-2 and the MBC/MIC (C. difficile; CD isolate BAA1805 (hyper-virulent strain BI/NAP1/027)) was 1. The MBC (C. difficile; BAA1805) was 0.125 µg/mL (≈ 0.264 µM), the MBC (C. difficile; CD isolate NR13430, read-out: MBC) was 0.25 µg/mL (≈ 0.528 µM) and the MBC (C. difficile; CD isolate NR13432, read-out: MBC) was 0.25 µg/mL (≈ 0.528 µM). It also gave an MBC (C. difficile; CD isolate NR13437, read-out: MBC) of 0.25 µg/mL (≈ 0.528 µM), an MBC (C. difficile; CD isolate NR32882, read-out: MBC) of 0.5 µg/mL (≈ 1.06 µM) and an MBC (C. difficile; CD isolate NR32883, read-out: MBC) of 0.5 µg/mL (≈ 1.06 µM). For the same molecule, the MBC (C. difficile; CD isolate NR332884, read-out: MBC) was 0.25 µg/mL (≈ 0.528 µM), the MBC (C. difficile; CD isolate VPI10463, read-out: MBC) was 0.25 µg/mL (≈ 0.528 µM) and the MIC (Lactobacillus strains; Lactobacillus, pH 6, Lactobacillus jhonsonii HM-643) was over 32 µg/mL. The MIC (Lactobacillus strains; Lactobacillus, pH 6, Lactobacillus sp. HM-228) was 1 µg/mL (≈ 2.11 µM), the MIC (Lactobacillus strains; Lactobacillus, pH 6, Lactobacillus sp. HM-478) was over 32 µg/mL and the MIC (Lactobacillus strains; pH 6, Lactobacillus crispatus HM-637) was 4 µg/mL (≈ 8.45 µM). For the same molecule, the MIC (Lactobacillus strains; pH 6, Lactobacillus gasseri HM-104) was over 32 µg/mL, the MIC (Lactobacillus strains; pH 6, Lactobacillus iners HM-126) was 2 µg/mL (≈ 4.22 µM) and the MIC (Lactobacillus strains; pH 6, Lactobacillus jensenii HM-105) was over 32 µg/mL. It also gave an MIC (Lactobacillus strains; pH 6, Lactobacillus reuteri HM-102) of over 32 µg/mL, an MIC (Lactobacillus strains; pH 6, Lactobacillus rhamnosus HM-106) of over 32 µg/mL and an MIC (Lactobacillus strains; pH 6, Lactobacillus vaginalis HM-405) of 2 µg/mL (≈ 4.22 µM). The MIC (Enterococcus faecalis; E. faecalis NR 31884, read-out: MIC) was 32 µg/mL (≈ 67.6 µM), the MIC (Enterococcus faecalis; E. faecalis NR 31885, read-out: MIC) was 32 µg/mL (≈ 67.6 µM) and the MIC (Enterococcus faecalis; E. faecalis NR 31886, read-out: MIC) was 32 µg/mL (≈ 67.6 µM). It also gave an MIC (Enterococcus faecalis; E. faecalis NR 31887, read-out: MIC) of 16 µg/mL (≈ 33.8 µM), an MIC (Enterococcus faecalis; E. faecalis NR 31888, read-out: MIC) of 32 µg/mL (≈ 67.6 µM) and an MIC (C. perfringens MH310; BB) of 0.5 µg/mL (≈ 1.06 µM). For the same molecule, the MIC (C. perfringens MH310; BHI) was 1 µg/mL (≈ 2.11 µM), the MIC (Enterococci faecium; E. faecium NR 31903) was 4 µg/mL (≈ 8.45 µM) and the MIC (Enterococci faecium; E. faecium NR 31909) was 2 µg/mL (≈ 4.22 µM). It also gave an MIC (Enterococci faecium; E. faecium NR 31912) of 2 µg/mL (≈ 4.22 µM), an MIC (Enterococci faecium; E. faecium NR 31915) of 16 µg/mL (≈ 33.8 µM) and an MIC (Enterococci faecium; E. faecium NR 31916) of 8 µg/mL (≈ 16.9 µM). The MIC ([1]; Staphylococcus aureus strain NR 10129, read-out: MIC) was 16 µg/mL (≈ 33.8 µM), the MIC ([1]; Staphylococcus aureus strain NR 10186, read-out: MIC) was 2 µg/mL (≈ 4.22 µM) and the MIC ([1]; Staphylococcus aureus strain NR 10187, read-out: MIC) was over 32 µg/mL. For the same molecule, the MIC ([1]; Staphylococcus aureus strain NR 10188, read-out: MIC) was 8 µg/mL (≈ 16.9 µM), the MIC ([1]; Staphylococcus aureus strain NR 10189, read-out: MIC) was 8 µg/mL (≈ 16.9 µM) and the MIC ([1]; Staphylococcus aureus strain NR 10191, read-out: MIC) was 4 µg/mL (≈ 8.45 µM). It also gave an MIC ([1]; Staphylococcus aureus strain NR 10192, read-out: MIC) of 8 µg/mL (≈ 16.9 µM), an MIC ([1]; Staphylococcus aureus strain NR 10193, read-out: MIC) of 4 µg/mL (≈ 8.45 µM) and an MIC ([1]; Staphylococcus aureus strain NR 10194, read-out: MIC) of 4 µg/mL (≈ 8.45 µM). For the same molecule, the MIC ([1]; Staphylococcus aureus strain NR 10198, read-out: MIC) was 16 µg/mL (≈ 33.8 µM), the MIC [2] was 0.125 µg/mL (≈ 0.264 µM) and the MIC ([2]; Clostridiales bacterium, Clostridiales bacterium HM-84, broth microdilution, brucella broth, read-out: MIC) was at most 0.031 µg/mL. The MIC ([2]; Clostridiales bacterium, Clostridiales bacterium HM-182, broth microdilution, brucella broth, read-out: MIC) was 0.25 µg/mL (≈ 0.528 µM), the MIC ([2]; Eubacterium sp. HM-178, broth microdilution, brucella broth) was 0.125 µg/mL (≈ 0.264 µM) and the MIC ([2]; Lachnospiraceae sp. HM-7, broth microdilution, brucella broth, read-out: MIC) was at most 0.031 µg/mL. It also gave an MIC ([2]; Lachnospiraceae sp. HM-150, broth microdilution, brucella broth, read-out: MIC) of 0.25 µg/mL (≈ 0.528 µM), an MIC ([2]; Lachnospiraceae sp. HM-153, broth microdilution, brucella broth) of 0.125 µg/mL (≈ 0.264 µM) and an MIC ([2]; Lachnospiraceae sp. HM-154, broth microdilution, brucella broth, read-out: MIC) of 0.5 µg/mL (≈ 1.06 µM). For the same molecule, the MIC ([2]; Lachnospiraceae sp. HM-161, broth microdilution, brucella broth, read-out: MIC) was 0.25 µg/mL (≈ 0.528 µM), the MIC ([2]; Lachnospiraceae sp. HM-480, broth microdilution, brucella broth, read-out: MIC) was 0.062 µg/mL (≈ 0.131 µM) and the MIC ([2]; Lachnospiraceae sp. HM-558, broth microdilution, brucella broth, read-out: MIC) was 0.062 µg/mL (≈ 0.131 µM). It also gave an MIC ([2]; Lachnospiraceae sp. HM-768, broth microdilution, brucella broth, read-out: MIC) of at most 0.031 µg/mL, an MIC ([2]; Lachnospiraceae sp. HM-868, broth microdilution, brucella broth, read-out: MIC) of 2 µg/mL (≈ 4.22 µM) and an MIC ([2]; Peptostreptococcaceae sp. HM-766, broth microdilution, brucella broth, read-out: MIC) of 1 µg/mL (≈ 2.11 µM). For the same molecule, the “susceptibility of Lachnospiraceae and related organisms (in words)” value ([2]; most of the members of this family) was “susceptible”, the MIC (C. difficile VPI10463; Clostridioides difficile, VPI10463) was 0.125 µg/mL (≈ 0.264 µM) and the MIC (C. difficile VPI10463; Clostridioides difficile, VPI10463, Expt. 1, fecal extract (human feces 20% w/v in BHI), C. difficile VPI10463) was 0.5 µg/mL (≈ 1.06 µM). The MIC (C. difficile VPI10463; Clostridioides difficile, VPI10463, Expt. 2, −fecal extract, C. difficile VPI10463) was 0.062 µg/mL (≈ 0.131 µM), the MIC (C. difficile VPI10463; Expt. 2, +fecal extract (human feces 20% w/v in BHI), C. difficile VPI10463) was 0.125 µg/mL (≈ 0.264 µM) and the MIC (Fusobacterium; F. nucleatum HM-75) was over 32 µg/mL. The MIC (Fusobacterium; F. nucleatum HM-260) was over 32 µg/mL, the MIC (Fusobacterium; F. nucleatum HM-992) was over 32 µg/mL and the MIC (Fusobacterium; F. nucleatum HM-993) was 2 µg/mL (≈ 4.22 µM). It also gave an MIC (Fusobacterium; F. nucleatum HM-994) of 32 µg/mL (≈ 67.6 µM), an MIC (Fusobacterium; F. nucleatum HM-995) of over 32 µg/mL and an MIC (Fusobacterium; F. nucleatum HM-996) of 32 µg/mL (≈ 67.6 µM). For the same molecule, the MIC (Fusobacterium; F. nucleatum HM-997) was over 32 µg/mL, the MIC (Fusobacterium; Fusobacterium, Fusobacterium sp. HM 42) was over 32 µg/mL and the MIC (Fusobacterium; Fusobacterium, Fusobacterium sp. HM 57) was over 32 µg/mL. It also gave an MIC (Fusobacterium; Fusobacterium, Fusobacterium sp. HM-556) of 16 µg/mL (≈ 33.8 µM), an MIC (Fusobacterium; Fusobacterium, Fusobacterium sp. HM-758) of over 32 µg/mL and an MIC (Fusobacterium; Fusobacterium, Fusobacterium sp. HM-871) of 32 µg/mL (≈ 67.6 µM). The MIC (Fusobacterium; Fusobacterium, Fusobacterium sp. HM-874) was over 32 µg/mL and the MIC (Fusobacterium; Fusobacterium, Fusobacterium sp. HM-875) was 32 µg/mL (≈ 67.6 µM).
